Measured values taken from PubChem BioAssay AID1963863 (Molecular Pharmacology Branch, DTP, NCI, 2024).

Tested on: 931267-113-T-J1-PDC KRAS spheroid with HUVEC/MSC, viability
Test: Anticancer human tumor 931267-113-T-J1-PDC patient-derived colon adenocarcinoma cell line growth inhibition [KRAS2]
Conditions: for IC50: curve of first compound; for viability, T/C: stronger effect = lower value
Outline: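 Combination screen of spheroid viability in tumor-cell co-cultures with endothelial (HUVEC) and mesenchymal stem cell stroma. Each agent was tested in half-log dilutions, topping at clinical Cmax or at 10 microM without a known Cmax.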

[1] = second compound 0.1 µM, first compound 0.00316 µM
[2] = second compound 0.1 µM, first compound 0.01 µM
[3] = second compound 0.1 µM, first compound 0.0316 µM
[4] = second compound 0.1 µM, first compound 0.1 µM
[5] = second compound 0.316 µM, first compound 0.00316 µM
[6] = second compound 0.316 µM, first compound 0.01 µM
[7] = second compound 0.316 µM, first compound 0.0316 µM
[8] = second compound 0.316 µM, first compound 0.1 µM
[9] = second compound 1 µM, first compound 0.00316 µM
[10] = second compound 1 µM, first compound 0.01 µM
[11] = second compound 1 µM, first compound 0.0316 µM
[12] = second compound 1 µM, first compound 0.1 µM
[13] = second compound 3.16 µM, first compound 0.00316 µM
[14] = second compound 3.16 µM, first compound 0.01 µM
[15] = second compound 3.16 µM, first compound 0.0316 µM
[16] = second compound 3.16 µM, first compound 0.1 µM
[17] = second compound 10 µM, first compound 0.00316 µM
[18] = second compound 10 µM, first compound 0.01 µM
[19] = second compound 10 µM, first compound 0.0316 µM
[20] = second compound 10 µM, first compound 0.1 µM
[21] = second compound 0.1 µM, first compound 0.316 µM
[22] = second compound 0.1 µM, first compound 1 µM
[23] = second compound 0.1 µM, first compound 3.16 µM
[24] = second compound 0.1 µM, first compound 10 µM
[25] = second compound 0.316 µM, first compound 0.316 µM
[26] = second compound 0.316 µM, first compound 1 µM
[27] = second compound 0.316 µM, first compound 3.16 µM
[28] = second compound 0.316 µM, first compound 10 µM
[29] = second compound 1 µM, first compound 0.316 µM
[30] = second compound 1 µM, first compound 1 µM
[31] = second compound 1 µM, first compound 3.16 µM
[32] = second compound 1 µM, first compound 10 µM
[33] = second compound 3.16 µM, first compound 0.316 µM
[34] = second compound 3.16 µM, first compound 1 µM
[35] = second compound 3.16 µM, first compound 3.16 µM
[36] = second compound 3.16 µM, first compound 10 µM
[37] = second compound 10 µM, first compound 0.316 µM
[38] = second compound 10 µM, first compound 1 µM
[39] = second compound 10 µM, first compound 3.16 µM
[40] = second compound 10 µM, first compound 10 µM
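Also: compound exposure lasted 7 days before the readout.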
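For viability, T/C in this document: 100% = DMSO vehicle control viability.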

Row | SMILES | IC50 (second compound 0.1 µM) [µM] | IC50 (second compound 0.316 µM) [µM] | IC50 (second compound 1 µM) [µM] | IC50 (second compound 3.16 µM) [µM] | IC50 (second compound 10 µM) [µM] | viability, T/C [3] [%] | viability, T/C [4] [%] | viability, T/C [7] [%] | viability, T/C [8] [%] | viability, T/C [11] [%] | viability, T/C [12] [%] | viability, T/C [15] [%] | viability, T/C [16] [%] | viability, T/C [19] [%] | viability, T/C [20] [%] | viability, T/C [21] [%] | viability, T/C [22] [%] | viability, T/C [25] [%] | viability, T/C [26] [%] | viability, T/C [29] [%] | further results
1 | CN(C)C/C=C/C(=O)Nc1cc2c(Nc3ccc(F)c(Cl)c3)ncnc2cc1O[C@H]1CCOC1 + COc1cc2nc(C)nc(NC(C)c3cc(N)cc(C(F)(F)F)c3)c2cc1OC1CCOC1 | > 0.1 | > 0.1 | > 0.1 | > 0.1 | > 0.1 | 103 | 116 | 85.2 | 93.5 | 100 | 94 | 97.2 | 108 | 102 | 83.7 | – | – | – | – | – | viability, T/C (second compound 0.1 µM, first compound 0.000316 µM): 96.2%; viability, T/C (second compound 0.1 µM, first compound 0.001 µM): 92.8%; viability, T/C [1]: 75.7%; viability, T/C [2]: 87.5%; viability, T/C (second compound 0.316 µM, first compound 0.000316 µM): 81.8%; viability, T/C (second compound 0.316 µM, first compound 0.001 µM): 75%; viability, T/C [5]: 90.3%; viability, T/C [6]: 87.6%; viability, T/C (second compound 1 µM, first compound 0.000316 µM): 87.7%; viability, T/C (second compound 1 µM, first compound 0.001 µM): 92.5%; viability, T/C [9]: 104%; viability, T/C [10]: 89.8%; viability, T/C (second compound 3.16 µM, first compound 0.000316 µM): 72.8%; viability, T/C (second compound 3.16 µM, first compound 0.001 µM): 72.8%; viability, T/C [13]: 88.1%; viability, T/C [14]: 74.9%; viability, T/C (second compound 10 µM, first compound 0.000316 µM): 69.6%; viability, T/C (second compound 10 µM, first compound 0.001 µM): 78.8%; viability, T/C [17]: 77%; viability, T/C [18]: 88.6%
2 | Cn1nccc1Nc1nccc(-c2cc3c(s2)C(C)(C)N(CCN2CCOCC2)C3=O)n1 + CNCc1ccccc1-c1csc(C(C)Nc2nc(C)nc3cc(OC)c(OC)cc23)c1 | 0.323 | 0.433 | 0.0884 | < 0.0316 | < 0.0316 | 73.6 | 71.3 | 76.4 | 75.4 | 56.5 | 51 | 0.1 | 0.09 | 0.11 | 0.13 | 44.5 | 34.1 | 60.6 | 21.4 | 26.6 | viability, T/C [23]: 6.18%; viability, T/C [24]: 2.96%; viability, T/C [27]: 4.19%; viability, T/C [28]: 1.79%; viability, T/C [30]: 11.2%; viability, T/C [31]: 0.39%; viability, T/C [32]: 0.15%; viability, T/C [33]: 0.08%; viability, T/C [34]: 0.11%; viability, T/C [35]: 0.04%; viability, T/C [36]: 0.11%; viability, T/C [37]: 0.13%; viability, T/C [38]: 0.11%; viability, T/C [39]: 0.11%; viability, T/C [40]: 0.42%
3 | O=C(c1cc(Cc2n[nH]c(=O)c3ccccc23)ccc1F)N1CCN(C(=O)C2CC2)CC1 + C=CC(=O)N1CCN(c2nc(OCC3CCCN3C)nc3c2CCN(c2cccc4cccc(C)c24)C3)CC1CC#N | > 10 | > 10 | > 10 | < 0.0316 | – | 84.7 | 99.4 | 84.6 | 96.5 | 72.2 | 79.3 | 0.28 | 0.21 | – | – | 81.3 | 79 | 87 | 69.3 | 87.2 | IC50 (second compound 0.0316 µM): > 10 µM; viability, T/C (second compound 0.0316 µM, first compound 0.0316 µM): 91%; viability, T/C (second compound 0.0316 µM, first compound 0.1 µM): 91.8%; viability, T/C (second compound 0.0316 µM, first compound 0.316 µM): 90.8%; viability, T/C (second compound 0.0316 µM, first compound 1 µM): 109%; viability, T/C (second compound 0.0316 µM, first compound 3.16 µM): 113%; viability, T/C (second compound 0.0316 µM, first compound 10 µM): 103%; viability, T/C [23]: 73.9%; viability, T/C [24]: 84.7%; viability, T/C [27]: 76.1%; viability, T/C [28]: 72.5%; viability, T/C [30]: 69.4%; viability, T/C [31]: 80.2%; viability, T/C [32]: 62.5%; viability, T/C [33]: 0.3%; viability, T/C [34]: 0.29%; viability, T/C [35]: 0.28%; viability, T/C [36]: 0.43%
4 | CCN1CCN(Cc2ccc(Nc3ncc(F)c(-c4cc(F)c5nc(C)n(C(C)C)c5c4)n3)nc2)CC1 + C=CC(=O)N1CCN(c2nc(=O)n(-c3c(C)ccnc3C(C)C)c3nc(-c4c(O)cccc4F)c(F)cc23)C(C)C1 | > 1 | > 1 | > 1 | > 1 | 0.367 | 81.2 | 87.4 | 82.5 | 65.8 | 78.4 | 80.9 | 83.5 | 73.6 | 90.2 | 72.5 | 71.8 | 50.8 | 60.8 | 50.8 | 60.7 | viability, T/C [1]: 103%; viability, T/C [2]: 73.6%; viability, T/C [5]: 95.2%; viability, T/C [6]: 88.3%; viability, T/C [9]: 105%; viability, T/C [10]: 83.1%; viability, T/C [30]: 51%; viability, T/C [13]: 94%; viability, T/C [14]: 90.3%; viability, T/C [33]: 74.3%; viability, T/C [34]: 47.5%; viability, T/C [17]: 89.1%; viability, T/C [18]: 99.9%; viability, T/C [37]: 60.1%; viability, T/C [38]: 4.51%
5 | O=C(c1cc(Cc2n[nH]c(=O)c3ccccc23)ccc1F)N1CCN(C(=O)C2CC2)CC1 + C=CC(=O)N1CCN(c2nc(=O)n(-c3c(C)ccnc3C(C)C)c3nc(-c4c(O)cccc4F)c(F)cc23)C(C)C1 | > 10 | > 10 | > 10 | > 10 | > 10 | 94.3 | 87 | 110 | 108 | 88 | 103 | 105 | 115 | 89.2 | 102 | 82.3 | 97.7 | 81.9 | 83.6 | 113 | viability, T/C [23]: 101%; viability, T/C [24]: 85.1%; viability, T/C [27]: 93.9%; viability, T/C [28]: 97.3%; viability, T/C [30]: 100%; viability, T/C [31]: 88.2%; viability, T/C [32]: 92.2%; viability, T/C [33]: 110%; viability, T/C [34]: 89.9%; viability, T/C [35]: 107%; viability, T/C [36]: 112%; viability, T/C [37]: 113%; viability, T/C [38]: 111%; viability, T/C [39]: 102%; viability, T/C [40]: 99.6%
6 | COc1cc2nccc(Oc3ccc(NC(=O)C4(C(=O)Nc5ccc(F)cc5)CC4)cc3)c2cc1OC + C=CC(=O)N1CCN(c2nc(=O)n(-c3c(C)ccnc3C(C)C)c3nc(-c4c(O)cccc4F)c(F)cc23)C(C)C1 | > 10 | 3.11 | > 10 | 2.58 | 0.723 | 115 | 96.3 | 105 | 96.6 | 108 | 115 | 106 | 92.8 | 82.6 | 80.6 | 91.7 | 104 | 97.1 | 96.3 | 98.4 | viability, T/C [23]: 65.1%; viability, T/C [24]: 69%; viability, T/C [27]: 49.3%; viability, T/C [28]: 48.5%; viability, T/C [30]: 109%; viability, T/C [31]: 63.7%; viability, T/C [32]: 57.2%; viability, T/C [33]: 98.2%; viability, T/C [34]: 82.3%; viability, T/C [35]: 43%; viability, T/C [36]: 34.4%; viability, T/C [37]: 54.3%; viability, T/C [38]: 58.1%; viability, T/C [39]: 10.7%; viability, T/C [40]: 18.5%
